Patent EP0883624B1, “TETRAETHER LIPIDS AND LIPOSOMES CONTAINING SAID LIPIDS, AND USE OF THE SAME” (Humatrix AG, priority 1996, dated 1997)

Experiment: Capacitance of a black lipid membrane
Format: physicochemical
Settings: Porengröße von 0,8 mm
Excerpt: Das Überspannen von Poren mit einer Lipidschicht ermöglicht nicht nur Einsatz solcher Systeme bei Separations- und Transportvorgängen (Dialyse, Umkehrosmose etc.), sondern auch im Bereich von Piezo- und Pyroelektrik, Mikrokondensatortechnik, nicht-linearer Optik und Biosensorik. Die Kapazität einer stabilen Black-Lipid-Membran aus TEL ist bei einer Porengröße von 0,8 mm 0,744 µF/cm^2.

Which “Kapazität einer stabilen Black-Lipid-Membran” value does the source give for “2,3,2',3'-Tetra-O-dibiphytanyl-di-sn-glycerol-1'-β-gulosyl-1-phosphoryl-3"-sn-glycerols [TEL]” here?
The value was 0,744 µF/cm^2.
